# Assay results published in PMC8151276, “An Integrated Approach toward NanoBRET Tracers for Analysis of GPCR Ligand Engagement” (Molecules, 2021).
# Target: T1, CXCR4 (Homo sapiens, UniProt P61073)
# T1 construct: purchased Promega (in-house HiBiT-GPCR construct library, NanoBRET)
# Assay: NanoBRET screen HiBiT-CXCR4 in HEK293
# Assay type: binding
# Method: Each tracer candidate was screened across the entire library of HiBiT-GPCR constructs using NanoBRET as the detection modality. As depicted in Figure 4A, the specificity of interactions was evaluated through decrease in BRET due to competitive displacement of a bound tracer by excess parental compound. Each tracer was analyzed for binding to each HiBiT-GPCR fusion in the absence and in the presence of competing parental compound. Briefly, HEK293 cells were transfected with HiBiT-GPCR constructs diluted into promoterless DNA to reduce expression and maximize translocation to the cell surface. Each tracer candidate was then screened at concentrations of 1 μM and 0.1 μM across cells expressing these fusions. Cells were treated for 1.5 h with tracer either alone or in the presence of 20 μM competing parental compound (i.e., control). BRET was measured upon addition of purified LgBiT and subsequent complementation with HiBiT genetically fused to a GPCR. The specificity of interactions was assessed through a decrease in BRET signal due to competitive displacement of the bound tracer. To further gauge the robustness of these interactions, the fold response over the control (i.e., BRETtracer/BRETcontrol) was calculated. We chose a 1.5-fold response, which translates to ≥7-fold signal over noise as the minimal threshold required to score an interaction as positive. […]. Below we highlight the screening results obtained for our exemplary fluorescent tracers based on Clozapine, Amitriptyline and AZD1283.
# HiBiT-GPCR DNA constructs were diluted in 10 mM Tris pH 8 to a final concentration of 0.01 μg/μL, arrayed in 96-well plates and stored at −20 °C. For transfection, HEK293 cells were suspended in Opti-MEM (without phenol red) supplemented with 2% fetal bovine serum (Seradigm) and 100 units/mL penicillin–streptomycin (Gibco) at a final concentration of 220,000 cells/mL and dispensed into white 96-well plates at 90 μL/well. Subsequent transfections and screens were carried using an Agilent Bravo Automated Liquid Handling Platform. First, the 96-well HiBiT DNA arrays were diluted 25-fold in Opti-MEM (without serum or phenol red) to a final concentration of 0.0004 μg/μL and 20 μL of the diluted DNAs were transferred into new 96-well plates. Next, promoterless carrier DNA (1 μg/μL) was diluted 25-fold (0.04 μg/μL) and then dispensed into the diluted arrays at 20 μL/well. Following brief mixing, Viafect transfection reagent (Promega) diluted 16-fold into Opti-MEM was dispensed into the plates at 40 μL/well. After mixing by pipetting, plates were incubated for 10 min on the pipetting station deck. The DNA-transfection reagent complexes were then added to plates containing cells. To facilitate the screen, 10 μL of DNA-transfection reagent complexes were added in duplicates to the top 4 and bottom 4 rows, resulting in two identical 48-well arrays per plate. Plates with transfected cells were incubated for 18–20 h at 37 °C/5% CO2. A screen of each tracer across the entire library using two different concentrations requires duplicate plates of transfected cells. Depending on the number of tracers being screened, transfections can be scaled up using the same ratios. The next day, for each tracer, four 20× screening solutions in tracer dilution buffer (Promega) were prepared: two duplicates at final concentration of 20 μM and two duplicates at a final concentration of 2 μM. A competing unmodified compound was added to one of each duplicate at a final concentration of 400 μM. The four resulting solutions were diluted 4-fold in Opti-MEM without serum or phenol red to generate 5× solutions (5 µM and 0.5 µM tracer +/− 100 μM competing compound). To screen the library, a BioTek MultiFlo FX liquid dispenser was used to dispense 22.5 µL of tracer solution to the top 4 rows and 22.5 µL tracer + competing compound solution to the 4 bottom rows. Plates were briefly mixed on an orbital shaker and incubated for 1.5 h at room temperature. […]
# T1 sequence (P61073 whole entry): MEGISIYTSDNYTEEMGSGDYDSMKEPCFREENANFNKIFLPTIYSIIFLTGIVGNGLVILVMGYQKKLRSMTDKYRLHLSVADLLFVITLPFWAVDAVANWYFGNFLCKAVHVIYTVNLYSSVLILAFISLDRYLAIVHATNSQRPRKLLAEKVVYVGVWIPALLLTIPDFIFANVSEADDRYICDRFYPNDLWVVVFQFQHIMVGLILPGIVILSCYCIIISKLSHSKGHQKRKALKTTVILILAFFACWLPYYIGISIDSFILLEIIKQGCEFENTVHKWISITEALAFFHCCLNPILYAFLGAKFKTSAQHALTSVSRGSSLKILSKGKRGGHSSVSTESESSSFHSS
Compound,"NanoBRET Fold Response (CXCR4, tracer 0.1μM)","NanoBRET Fold Response (CXCR4, tracer 1μM)",further results
CCOC(=O)c1cc(C#N)c(N2CCC(C(=O)NS(=O)(=O)Cc3ccccc3/C=C/C(=O)NCCNC(=O)CCc3ccc4n3[B-](F)(F)[N+]3=C(c5ccc[nH]5)C=CC3=C4)CC2)nc1C [AZD1283-1-NB590],–,–,"NanoBRET Fold Response (CXCR4, 0.1μM): 0.86; NanoBRET Fold Response (CXCR4, 1μM): 1.17"
N#CN=C(NCCCOc1cccc(CN2CCCCC2)c1)NCCNC(=O)CCOCCOCCOCCOCCNC(=O)CCc1ccc2n1[B-](F)(F)[N+]1=C(c3ccc[nH]3)C=CC1=C2 [Aminopotentidine-2-NB590],1.08,0.99,–
CN(C)CCC=C1c2ccccc2CCc2ccc(C(=O)NCCNC(=O)CCOCCOCCOCCOCCNC(=O)CCc3ccc4n3[B-](F)(F)[N+]3=C(c5ccc[nH]5)C=CC3=C4)cc21 [Amitriptyline-a-2-NB590],–,–,NanoBRET Fold Response (tracer at 0.1μM): 0.89; NanoBRET Fold Response (tracer at 1μM): 1.04
CN(C)CCC=C1c2ccccc2CCc2ccc(C(=O)NCCNC(=O)CCOCCOCCOCCOCCNC(=O)CCc3ccc4n3[B-](F)(F)[N+]3=C(c5ccc[nH]5)C=CC3=C4)cc21 [Amitriptyline-b-2-NB590],–,–,"NanoBRET Fold Response (tracer at 0.1μM, listed as amitriptyline-b-2-NB590): 1.12; NanoBRET Fold Response (tracer at 1μM): 0.70"
CN(CCC=C1c2ccccc2CCc2ccccc21)C(=O)CCOCCOCCOCCOCCNC(=O)CCc1ccc2n1[B-](F)(F)[N+]1=C(c3ccc[nH]3)C=CC1=C2 [Amitriptyline-e-2-NB590],–,–,NanoBRET Fold Response (tracer at 1μM): 1.15
COc1ccc2c(n1)c(CCNC(C)=O)cn2CCNC(=O)CCc1ccc2n1[B-](F)(F)[N+]1=C(c3ccc[nH]3)C=CC1=C2 [Azamelatonin-1-NB590],–,–,NanoBRET Fold Response (0.1μM tracer): 1.11; NanoBRET Fold Response (1μM tracer): 0.82
COc1ccc2[nH]c(-c3ccc(CNC(=O)CCOCCOCCOCCOCCNC(=O)CCc4ccc5n4[B-](F)(F)[N+]4=C(c6ccc[nH]6)C=CC4=C5)cc3)c(CCNC(C)=O)c2n1 [AzomelatoninICO9-2-NB590],–,–,NanoBRET Fold Response (0.1μM tracer): 1.00; NanoBRET Fold Response (1μM tracer): 0.81
O=C(CCOCCOCCOCCOCCNC(=O)CCc1ccc2n1[B-](F)(F)[N+]1=C(c3ccc[nH]3)C=CC1=C2)NCCCN1CCN(C2=Nc3cc(Cl)ccc3Nc3ccccc32)CC1 [Clozapine-a-2-NB590],–,–,"NanoBRET Fold Response (CXCR4, 0.1μM tracer): 1.04; NanoBRET Fold Response (CXCR4, 1μM tracer): 0.85"
CN1CCN(C2=Nc3cc(Cl)ccc3Nc3ccc(CNC(=O)CCOCCOCCOCCOCCNC(=O)CCc4ccc5n4[B-](F)(F)[N+]4=C(c6ccc[nH]6)C=CC4=C5)cc32)CC1 [Clozapine-b-2-NB590],–,–,"NanoBRET Fold Response (CXCR4, 0.1μM tracer): 1.03; NanoBRET Fold Response (CXCR4, 1μM tracer): 1.07"
CN1CCN(C2=Nc3cc(Cl)ccc3N(CC(=O)NCCOCCOCCOCCOCCNC(=O)CCc3ccc4n3[B-](F)(F)[N+]3=C(c5ccc[nH]5)C=CC3=C4)c3ccccc32)CC1 [Clozapine-c-2-NB590],–,–,"NanoBRET Fold Response (CXCR4, 0.1μM tracer): 1.04; NanoBRET Fold Response (CXCR4, 1μM tracer): 0.97"
O=C(CCOCCOCCOCCOCCNC(=O)CCc1ccc2n1[B-](F)(F)[N+]1=C(c3ccc[nH]3)C=CC1=C2)NCCCN1CCN(C2=Nc3ccccc3Oc3ccc(Cl)cc32)CC1 [Loxapine-a-2-NB590],1.03,1.03,–
COc1ccccc1N1CCN(CCCCN2C(=O)c3ccc(CNC(=O)CCOCCOCCOCCOCCNC(=O)CCc4ccc5n4[B-](F)(F)[N+]4=C(c6ccc[nH]6)C=CC4=C5)cc3C2=O)CC1 [NAN-190-2-NB590],1.00,1.03,–
COc1ccccc1N1CCN(CCCCN2C(=O)c3ccc(CNC(=O)CCOCCNC(=O)c4ccc(CNC(=O)CCc5ccc6n5[B-](F)(F)[N+]5=C(c7ccc[nH]7)C=CC5=C6)cc4)cc3C2=O)CC1 [NAN-190-3-NB590],1.24,1.08,–
O=C(CCc1ccc2n1[B-](F)(F)[N+]1=C(c3ccc[nH]3)C=CC1=C2)NCc1ccc(C(=O)NCCOCCC(=O)N[C@@H]2CC[C@@]3(O)[C@H]4Cc5ccc(O)c6c5[C@@]3(CCN4CC3CC3)[C@H]2O6)cc1 [Naltrexone-3-NB590],1.30,0.84,–
Cc1cc2c(s1)Nc1ccccc1N=C2N1CCN(CCCNC(=O)CCOCCOCCOCCOCCNC(=O)CCc2ccc3n2[B-](F)(F)[N+]2=C(c4ccc[nH]4)C=CC2=C3)CC1 [Olanzapine-a-2-NB590],1.04,1.10,–
O=C(CCc1ccc2n1[B-](F)(F)[N+]1=C(c3ccc[nH]3)C=CC1=C2)NCc1ccc(C(=O)NCCOCCOCCNCC(O)COc2cccc3ccccc23)cc1 (centres unmarked) [Propranolol-3-NB590],–,–,"NanoBRET Fold Response (CXCR4, 0.1μM): 1.04; NanoBRET Fold Response (CXCR4, 1μM): 1.02"
O=C(CCc1ccc2n1[B-](F)(F)[N+]1=C(c3ccc[nH]3)C=CC1=C2)NCCOCCOCCNC(=O)OCCOCCN1CCN(C2=Nc3ccccc3Sc3ccccc32)CC1 [Quetiapine-a-2-NB590],0.98,0.97,–
Cc1nc2n(c(=O)c1CCN1CCC(c3noc4cc(F)ccc34)CC1)CCCC2OC(=O)NCCOCCOCCOCCOCCNC(=O)CCc1ccc2n1[B-](F)(F)[N+]1=C(c3ccc[nH]3)C=CC1=C2 (centres unmarked) [Risperidone-2-NB590],1.05,1.12,–
CC(C)N(CC[C@H](c1ccccc1)c1cc(CCNC(=O)CCOCCOCCOCCOCCNC(=O)CCc2ccc3n2[B-](F)(F)[N+]2=C(c4ccc[nH]4)C=CC2=C3)ccc1O)C(C)C [Tolterodine-2-NB590],0.88,1.02,–
CC(C)N(CC[C@H](c1ccccc1)c1cc(CCNC(=O)c2ccc(CNC(=O)CCc3ccc4n3[B-](F)(F)[N+]3=C(c5ccc[nH]5)C=CC3=C4)cc2)ccc1O)C(C)C [Tolterodine-BZ-NB590],0.94,1.03,–
CCCn1c(=O)c2[nH]c(-c3ccc(OCC(=O)NCCNC(=O)CCOCCNC(=O)c4ccc(CNC(=O)CCc5ccc6n5[B-](F)(F)[N+]5=C(c7ccc[nH]7)C=CC5=C6)cc4)cc3)nc2n(CCC)c1=O [XAC-3-NB590],0.90,0.92,–
